# Reference: US11384078B2, “5,6-fused-bicyclic compounds and compositions for the treatment of parasitic diseases” (NOVARTIS AG, priority 2017, dated 2022)
# Like-named read-outs stand apart in the source and are kept apart here.
# Columns and labels:
# Assay type in all cases: cell-based
# [1] = tested on: Leishmania donovani axenic amastigote; assay: In vitro assay for growth inhibition of Leishmania donovani axenic amastigote (Cell TiterGlo luminescence); conditions: Leishmania donovani, L. donovani axenic amastigotes in vitro; read-out: L. donovani amastigotes EC50
# In short: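 Compound-treated wells received 9600 axenic amastigotes in RPMI 1640-based medium at pH 5.5 (37 °C, 5% CO2). Growth measured as ATP luminescence (CellTiter-Glo) after 2-day incubation; DMSO and reference compounds served as controls.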
# [2] = tested on: L. donovani HU3 strain in mouse peritoneal macrophages; assay: Assay for inhibition of parasitemia of Leishmania donovani in mouse macrophages (SYBR Green nuclei count, high-content imaging); conditions: Leishmania donovani, Peritoneal macrophage, read-out: L. donovani in Mouse Macrophages EC50
# In short: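 Parasite numbers were counted from SYBR Green-stained nuclei imaged by high-content microscopy after paraformaldehyde fixation and Triton permeabilization. Before this, compound was applied for 5 days at 37° C to BALB/c peritoneal macrophages (2×10^4/well) that had been exposed 24 h to 4×10^5 L. donovani HU3 amastigotes harvested from infected mouse spleens.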
# [3] = tested on: Trypanosoma cruzi amastigotes cultured in 3T3 fibroblast cells; assay: Assay for growth inhibition of kinetoplastid parasite Trypanosoma cruzi (beta-galactosidase Tulahuen strain, CPRG readout); conditions: Trypanosoma cruzi, T. cruzi amastigotes in 3T3 fibroblast cells, read-out: Buckner infectious T. cruzi EC50
# In short: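 3T3 fibroblasts (1,000 cells/well) plated overnight, treated with compound in DMSO, then infected with 10,000 Lac-Z-expressing Tulahuen trypomastigotes. After 6 days, 0.6 mM CPRG with 0.6% NP-40 added for 2 h at room temperature; absorbance gives relative intracellular amastigote numbers. Benznidazole and nifurtimox serve as positive controls.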
# [4] = tested on: Trypanosoma brucei brucei (Lister 427) strain; assay: Assay for growth inhibition against Trypanosoma brucei brucei (Cell TiterGlo ATP luminescence); conditions: Trypanosoma brucei, T. brucei brucei (Lister 427); read-out: T. Brucei (HAT) EC50
# In short: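 Growth read-out is cellular ATP by CellTiter-Glo luminescence, measured 30 min after reagent addition, following 2-day incubation at 37 °C in CO2. Parasites (10,000/mL, HMI-9 plus 10% FBS and 10% serum plus) faced 10 threefold dilutions in duplicate; IC50 taken as 50% growth inhibition versus untreated.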
# [5] = L. donovani in mouse peritoneal macrophages
Structure (SMILES),EC50 [1] [nM],"EC50 [2, 5] [nM]",EC50 ([3]; Fibroblast) [nM],EC50 [4] [nM],EC50 [2] [nM],EC50 [3] [nM]
"O=C(Nc1ccc(F)c(-n2cc3cc(-c4ccccn4)cnc3n2)c1)N1CCC1 [Compound 99, N-{4-fluoro-3-[5-(pyridin-2-yl)-2H-pyrazolo[3,4-b]pyridin-2-yl]phenyl}azetidine-1-carboxamide]",1.3,2,1,> 50000,–,–
"Cc1nc(C)c(C(=O)Nc2ccc(F)c(-n3cc4cc(C5CCC5)cnc4n3)c2)o1 [Compound 101, N-(3-{5-cyclobutyl-2H-pyrazolo[3,4-b]pyridin-2-yl}-4-fluorophenyl)-2,4-dimethyl-1,3-oxazole-5-carboxamide]",300,310,130,150,–,–
"Cc1nc(C)c(C(=O)Nc2ccc(F)c(-n3cc4cc(C(C)(C)C)cnc4n3)c2)o1 [Compound 103, N-(3-{5-tert-butyl-2H-pyrazolo[3,4-b]pyridin-2-yl}-4-fluorophenyl)-2,4-dimethyl-1,3-oxazole-5-carboxamide]",680,400,150,310,–,–
"CCC(C)(C)c1cnc2nn(-c3cc(NC(=O)c4oc(C)nc4C)ccc3F)cc2c1 [Compound 104, N-{4-fluoro-3-[5-(2-methylbutan-2-yl)-2H-pyrazolo[3,4-b]pyridin-2-yl]phenyl}-2,4-dimethyl-1,3-oxazole-5-carboxamide]",3100,2100,1200,4200,–,–
"CCC(C)c1cnc2nn(-c3cc(NC(=O)c4oc(C)nc4C)ccc3F)cc2c1 (stereo not shown) [Compound 105, N-{3-[5-(butan-2-yl)-2H-pyrazolo[3,4-b]pyridin-2-yl]-4-fluorophenyl}-2,4-dimethyl-1,3-oxazole-5-carboxamide]",720,890,430,380,–,–
"Cc1nc(C)c(C(=O)Nc2ccc(F)c(-n3cc4cc(CC5CCC5)cnc4n3)c2)o1 [Compound 106, N-{3-[5-(cyclobutylmethyl)-2H-pyrazolo[3,4-b]pyridin-2-yl]-4-fluorophenyl}-2,4-dimethyl-1,3-oxazole-5-carboxamide]",130,85,61,> 50000,–,–
"Cc1nc(C)c(C(=O)Nc2ccc(F)c(-n3cc4cc(CCC(C)C)cnc4n3)c2)o1 [Compound 107, N-{4-fluoro-3-[5-(3-methylbutyl)-2H-pyrazolo[3,4-b]pyridin-2-yl]phenyl}-2,4-dimethyl-1,3-oxazole-5-carboxamide]",220,130,77,88,–,–
"Cc1nc(C)c(C(=O)Nc2ccc(F)c(-n3cc4cc(-c5ccccn5)cnc4n3)c2)o1 [Compound 108, N-{4-fluoro-3-[5-(pyridin-2-yl)-2H-pyrazolo[3,4-b]pyridin-2-yl]phenyl}-2,4-dimethyl-1,3-oxazole-5-carboxamide]",3.3,4,3.8,< 23,–,–
"CC(C)OC(=O)Nc1cnc2nn(-c3cc(NC(=O)c4ccco4)ccc3F)cc2c1 [Compound 123, propan-2-yl N-{2-[2-fluoro-5-(furan-2-amido)phenyl}-2H-pyrazolo[3,4-b]pyridin-5-yl}carbamate]",9.4,8.9,4.4,< 23,–,–
"O=C(Nc1ccc(F)c(-n2cc3cc(Br)cnc3n2)c1)N1CC(F)(F)C1 [Compound 125, N-(3-(5-bromo-2H-pyrazolo[3,4-b]pyridin-2-yl)-4-fluorophenyl)-3,3-difluoroazetidine-1-carboxamide]",44,–,–,< 23,31,34
"O=C(Nc1ccc(F)c(-n2cc3cc(Br)cnc3n2)c1)N1CC(F)C1 [Compound 126, N-(3-(5-bromo-2H-pyrazolo[3,4-b]pyridin-2-yl)-4-fluorophenyl)-3-fluoroazetidine-1-carboxamide]",24,–,–,< 23,14,14
"O=C(Nc1ccc(F)c(-n2cc3cc(Br)cnc3n2)c1)N1CC[C@@H](F)C1 [Compound 127, (R)—N-(3-(5-bromo-2H-pyrazolo[3,4-b]pyridin-2-yl)-4-fluorophenyl)-3-fluoropyrrolidine-1-carboxamide]",25,17,6.8,< 23,–,–
"Cc1nc(C)c(C(=O)Nc2ccc(F)c(-n3cc4cc(Br)cnc4n3)c2)o1 [Compound 128, N-(3-(5-bromo-2H-pyrazolo[3,4-b]pyridin-2-yl)-4-fluorophenyl)-2,4-dimethyloxazole-5-carboxamide]",380,190,140,180,–,–
"O=C(Nc1ccc(F)c(-n2cc3cc(Br)cnc3n2)c1)N1CCC1 [Compound 129, N-(3-(5-bromo-2H-pyrazolo[3,4-b]pyridin-2-yl)-4-fluorophenyl)azetidine-1-carboxamide]",29,–,–,< 23,31,15
"O=C(Nc1ccc(F)c(-n2cc3cc(Br)cnc3n2)c1)c1ccco1 [Compound 130, N-(3-(5-bromo-2H-pyrazolo[3,4-b]pyridin-2-yl)-4-fluorophenyl)furan-2-carboxamide]",190,160,36,40,–,–
"O=C(Nc1ccc(F)c(-n2cc3cc(N4CCCC4)cnc3n2)c1)N1CC(F)C1 [Compound 131, 3-fluoro-N-{4-fluoro-3-[5-(pyrrolidin-1-yl)-2H-pyrazolo[3,4-b]pyridin-2-yl]phenyl}azetidine-1-carboxamide]",7,5.1,5.2,< 23,–,–
"O=C(Nc1ccc(F)c(-n2cc3cc(N4CCOCC4)cnc3n2)c1)N1CC(F)C1 [Compound 132, 3-fluoro-N-{4-fluoro-3-[5-(morpholin-4-yl)-2H-pyrazolo[3,4-b]pyridin-2-yl]phenyl}azetidine-1-carboxamide]",11,7,13,< 23,–,–
"CN(C)c1cnc2nn(-c3cc(NC(=O)N4CC[C@@H](F)C4)ccc3F)cc2c1 [Compound 133, (3R)-N-{3-[5-(dimethylamino)-2H-pyrazolo[3,4-b]pyridin-2-yl]-4-fluorophenyl}-3-fluoropyrrolidine-1-carboxamide]",12,8,5.9,< 23,–,–
"O=C(Nc1ccc(F)c(-n2cc3cc(N4CCCC4)cnc3n2)c1)N1CC[C@@H](F)C1 [Compound 134, (3R)-3-fluoro-N-{4-fluoro-3-[5-(pyrrolidin-1-yl)-2H-pyrazolo[3,4-b]pyridin-2-yl]phenyl}pyrrolidine-1-carboxamide]",23,5.4,20,< 23,–,–
"O=C(Nc1ccc(F)c(-n2cc3cc(N4CCOCC4)cnc3n2)c1)N1CC[C@@H](F)C1 [Compound 135, (3R)-3-fluoro-N-{4-fluoro-3-[5-(morpholin-4-yl)-2H-pyrazolo[3,4-b]pyridin-2-yl]phenyl}pyrrolidine-1-carboxamide]",4.6,8.6,6.6,< 23,–,–
CC(C)OC(=O)Nc1cnc2nn(-c3cc(NC(=O)N4CC[C@@H](F)C4)ccc3F)cc2c1 [Compound 136],30,19,170,< 23,–,–
"O=C(Nc1ccc(F)c(-n2cc3cc(N4CCOCC4)cnc3n2)c1)N1CCC1 [Compound 137, N-{4-fluoro-3-[5-(morpholin-4-yl)-2H-pyrazolo[3,4-b]pyridin-2-yl]phenyl}azetidine-1-carboxamide]",8.8,6,5.1,< 23,–,–
"CC(C)OC(=O)Nc1cnc2nn(-c3cc(NC(=O)N4CCC4)ccc3F)cc2c1 [Compound 138, propan-2-yl N-(2-{5-[(azetidine-1-carbonyl)amino]-2-fluorophenyl}-2H-pyrazolo[3,4-b]pyridin-5-yl)carbamate]",11,5.7,47,< 23,–,–
"CNc1cnc2nn(-c3cc(NC(=O)c4ccco4)ccc3F)cc2c1 [Compound 139, N-{4-fluoro-3-[5-(methylamino)-2H-pyrazolo[3,4-b]pyridin-2-yl]phenyl}furan-2-carboxamide]",740,320,3000,< 23,–,–
"CN(C)c1cnc2nn(-c3cc(NC(=O)c4ccco4)ccc3F)cc2c1 [Compound 140, N-{3-[5-(dimethylamino)-2H-pyrazolo[3,4-b]pyridin-2-yl]-4-fluorophenyl}furan-2-carboxamide]",100,41,23,< 23,–,–
